Measurements from US6737383B1, “Herbicidal oxadiazolidines” (priority 1999, dated 2004).

Experiments:
smallflower flatsedge = assay: Test B flood test smallflower flatsedge; format: in vivo, Cyperus difformis
Procedure, shortened: (§1)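 Read-out is a visual response score from 0 (no effect) to 10 (complete control), assigned by comparison with untreated controls. Treatment was applied at the 2-leaf stage, and plants stayed in the greenhouse for twelve to sixteen days before scoring.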

corn = assay: Test B pre/postemergence corn; format: in vivo, Zea mays; conditions: for Corn plant response rating: scale of 0 to 10 where 0 is no effect and 10 is complete control
Procedure, shortened: (§2)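 Response is a visual 0-to-10 score relative to untreated plants, where 0 means no effect and 10 means complete control, taken twelve to sixteen days after application. Treatments went onto soil at planting and onto foliage of 1- to 4-leaf plants, using a surfactant-containing non-phytotoxic solvent.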

bedstraw = assay: Test B pre/postemergence bedstraw; format: in vivo, Galium aparine; conditions: Preemergence; for Bedstraw plant response rating: scale of 0 to 10 where 0 is no effect and 10 is complete control
Procedure, shortened: as §2

blackgrass = assay: Test B pre/postemergence blackgrass; format: in vivo, Alopecurus myosuroides
Procedure, shortened: as §2

sugar beet = assay: Test B pre/postemergence sugar beet; format: in vivo, Beta vulgaris; conditions: for Sugarbeets plant response rating: scale of 0 to 10 where 0 is no effect and 10 is complete control
Procedure, shortened: as §2

duck salad = assay: Test B flood test duck salad; format: in vivo, Heteranthera limosa
Procedure, shortened: as §1

wild oat = assay: Test B pre/postemergence wild oat; format: in vivo, Avena fatua; conditions: for Wild oats plant response rating: scale of 0 to 10 where 0 is no effect and 10 is complete control
Procedure, shortened: as §2

crabgrass = assay: Test B pre/postemergence crabgrass; format: in vivo, Digitaria sanguinalis; conditions: for Crabgrass plant response rating: scale of 0 to 10 where 0 is no effect and 10 is complete control
Procedure, shortened: as §2

purple nutsedge = assay: Test B pre/postemergence purple nutsedge; format: in vivo, Cyperus rotundus; conditions: for Nutsedge plant response rating: scale of 0 to 10 where 0 is no effect and 10 is complete control
Procedure, shortened: as §2

velvetleaf = assay: Test B pre/postemergence velvetleaf; format: in vivo, Abutilon theophrasti; conditions: for Velvetleaf plant response rating: scale of 0 to 10 where 0 is no effect and 10 is complete control
Procedure, shortened: as §2

rape = assay: Test B pre/postemergence rape; format: in vivo, Brassica napus; conditions: for Rape plant response rating: scale of 0 to 10 where 0 is no effect and 10 is complete control
Procedure, shortened: as §2

surinam grass = assay: Test B pre/postemergence surinam grass; format: in vivo, Brachiaria decumbens
Procedure, shortened: as §2

soybean = assay: Test B pre/postemergence soybean; format: in vivo, Glycine max; conditions: for Soybean plant response rating: scale of 0 to 10 where 0 is no effect and 10 is complete control
Procedure, shortened: as §2

rice = assay: Test B flood test rice; format: in vivo, Oryza sativa
Procedure, shortened: as §1

pigweed = assay: Test B pre/postemergence pigweed; format: in vivo, Amaranthus retroflexus; conditions: for Redroot pigweed plant response rating: scale of 0 to 10 where 0 is no effect and 10 is complete control
Procedure, shortened: as §2

wheat = assay: Test B pre/postemergence wheat; format: in vivo, Triticum aestivum; conditions: for Wheat plant response rating: scale of 0 to 10 where 0 is no effect and 10 is complete control
Procedure, shortened: as §2

[1] = Postemergence (flood test), Rate 125 g/ha, scale 0 to 10, 0 is no effect, 10 is complete control
[2] = Rate 62 g/ha, Postemergence (flood test species), scale of 0 to 10 where 0 is no effect and 10 is complete control
[3] = Rate 62 g/ha, flood test species, Pre-emergence, visual evaluation after twelve to sixteen days
[4] = Rate 125 g/ha, Pre-emergence, flood test species, scale 0 to 10 where 0 is no effect and 10 is complete control
[5] = Rate 250 g/ha, Pre-emergence, flood-test species, scale 0 to 10, 0 is no effect, 10 is complete control
[6] = Rate 500 g/ha, listed under Postemergence (flood test species), scale 0 to 10, 0 no effect, 10 complete control
[7] = Rate 500 g/ha, Pre-emergence, flood test species, scale 0 to 10 (0 no effect, 10 complete control)
[8] = Postemergence, Rate 125 g/ha, scale 0 to 10, 0 is no effect, 10 is complete control
[9] = Preemergence, Rate 62 g/ha, scale 0 to 10 (0 no effect, 10 complete control)
[10] = Rate 500 g/ha, Postemergence, scale 0 to 10, 0 no effect, 10 complete control
[11] = Preemergence, Rate 250 g/ha, scale of 0 to 10 where 0 is no effect and 10 is complete control
[12] = Preemergence, Rate 500 g/ha, scale of 0 to 10 where 0 is no effect and 10 is complete control
[13] = Rate 62 g/ha, Postemergence, scale of 0 to 10 where 0 is no effect and 10 is complete control
[14] = Rate 250 g/ha, Postemergence, scale of 0 to 10 where 0 is no effect and 10 is complete control

## CC(C)N(C(=O)n1oc(=O)n(C2CCC2)c1=O)c1ccc(F)cc1 [Compound 350]
Smallflower flatsedge; [1]
  Plant response rating, S. Flatsedge: 2
Smallflower flatsedge; [2]
  S. Flatsedge plant response rating: 0
Smallflower flatsedge; [3]
  Plant response rating, S. Flatsedge (0 to 10 scale, 0 is no effect, 10 is complete control): 0
Smallflower flatsedge; [4]
  S. Flatsedge plant response rating: 0
Smallflower flatsedge; [5]
  S. Flatsedge plant response rating: 0
Smallflower flatsedge; [6]
  Plant response rating, S. Flatsedge: 8
Smallflower flatsedge; [7]
  S. Flatsedge plant response rating: 0
corn; [8]
  Plant response rating, Corn: 0
corn; [9]
  Plant response rating, Corn: 0
corn; Preemergence, Rate 125 g/ha
  Corn plant response rating (0 to 10 scale): 0
corn; Preemergence, Rate 250 g/ha
  Corn plant response rating: 0
corn; Preemergence, Rate 500 g/ha
  Corn plant response rating: 7
corn; Rate 62 g/ha, Postemergence
  Corn plant response rating: 0
corn; [10]
  Plant response rating, Corn: 0
bedstraw; Rate 62 g/ha, scale 0 to 10 (0 no effect, 10 complete control)
  Plant response rating, Bedstraw: 10
bedstraw; Rate 125 g/ha
  Bedstraw plant response rating (0 to 10 scale): 10
bedstraw; Rate 250 g/ha
  Bedstraw plant response rating: 10
bedstraw; Rate 500 g/ha
  Bedstraw plant response rating: 10
blackgrass; [8]
  Plant response rating, Blackgrass: 4
blackgrass; [9]
  Plant response rating, Blackgrass: 4
blackgrass; Preemergence, Rate 125 g/ha
  Blackgrass plant response rating (0 to 10 scale): 5
blackgrass; [11]
  Blackgrass plant response rating: 8
blackgrass; [12]
  Blackgrass plant response rating: 8
blackgrass; [13]
  Blackgrass plant response rating: 4
blackgrass; [14]
  Plant response rating, Blackgrass: 7
blackgrass; [10]
  Plant response rating, Blackgrass: 7
Sugar beet; [8]
  Plant response rating, Sugarbeets: 0
Sugar beet; [9]
  Plant response rating, Sugarbeets: 2
Sugar beet; Preemergence, Rate 125 g/ha
  Sugarbeets plant response rating (0 to 10 scale): 2
Sugar beet; Preemergence, Rate 250 g/ha
  Sugarbeets plant response rating: 4
Sugar beet; Preemergence, Rate 500 g/ha
  Sugarbeets plant response rating: 9
Sugar beet; Rate 62 g/ha, Postemergence
  Sugarbeets plant response rating: 0
Sugar beet; [10]
  Plant response rating, Sugarbeets: 0
Duck salad; [1]
  Plant response rating, Ducksalad: 2
Duck salad; [2]
  Ducksalad plant response rating: 0
Duck salad; [3]
  Plant response rating, Ducksalad (0 to 10 scale, 0 is no effect, 10 is complete control): 0
Duck salad; [4]
  Ducksalad plant response rating: 0
Duck salad; [5]
  Ducksalad plant response rating: 0
Duck salad; [6]
  Plant response rating, Ducksalad: 3
Duck salad; [7]
  Ducksalad plant response rating: 0
Wild oat; [8]
  Plant response rating, Wild oats: 0
Wild oat; [9]
  Plant response rating, Wild oats: 0
Wild oat; Preemergence, Rate 125 g/ha
  Wild oats plant response rating (0 to 10 scale): 3
Wild oat; Preemergence, Rate 250 g/ha
  Wild oats plant response rating: 5
Wild oat; Preemergence, Rate 500 g/ha
  Wild oats plant response rating: 7
Wild oat; Rate 62 g/ha, Postemergence
  Wild oats plant response rating: 0
Wild oat; [10]
  Plant response rating, Wild oats: 5
crabgrass; [8]
  Plant response rating, Crabgrass: 1
crabgrass; [9]
  Plant response rating, Crabgrass: 8
crabgrass; Preemergence, Rate 125 g/ha
  Crabgrass plant response rating (0 to 10 scale): 8
crabgrass; Preemergence, Rate 250 g/ha
  Crabgrass plant response rating: 10
crabgrass; Preemergence, Rate 500 g/ha
  Crabgrass plant response rating: 10
crabgrass; Rate 62 g/ha, Postemergence
  Crabgrass plant response rating: 1
crabgrass; [10]
  Plant response rating, Crabgrass: 7
Purple nutsedge; [8]
  Plant response rating, Nutsedge: 0
Purple nutsedge; Preemergence, Rate 125 g/ha
  Nutsedge plant response rating (0 to 10 scale): 0
Purple nutsedge; Preemergence, Rate 250 g/ha
  Nutsedge plant response rating: 0
Purple nutsedge; Preemergence, Rate 500 g/ha
  Nutsedge plant response rating: 10
Purple nutsedge; Rate 62 g/ha, Postemergence
  Nutsedge plant response rating: 0
Purple nutsedge; [10]
  Plant response rating, Nutsedge: 0
velvetleaf; [8]
  Plant response rating, Velvetleaf: 0
velvetleaf; [9]
  Plant response rating, Velvetleaf: 2
velvetleaf; Preemergence, Rate 125 g/ha
  Velvetleaf plant response rating (0 to 10 scale): 2
velvetleaf; Preemergence, Rate 250 g/ha
  Velvetleaf plant response rating: 4
velvetleaf; Preemergence, Rate 500 g/ha
  Velvetleaf plant response rating: 6
velvetleaf; Rate 62 g/ha, Postemergence
  Velvetleaf plant response rating: 0
velvetleaf; [10]
  Plant response rating, Velvetleaf: 6
rape; [8]
  Plant response rating, Rape: 0
rape; [9]
  Plant response rating, Rape: 0
rape; Preemergence, Rate 125 g/ha
  Rape plant response rating (0 to 10 scale): 0
rape; Preemergence, Rate 250 g/ha
  Rape plant response rating: 7
rape; Preemergence, Rate 500 g/ha
  Rape plant response rating: 10
rape; Rate 62 g/ha, Postemergence
  Rape plant response rating: 0
rape; [10]
  Plant response rating, Rape: 2
Surinam grass; [8]
  Plant response rating, B. signalgrass: 0
Surinam grass; [9]
  Plant response rating, B. signalgrass: 0
Surinam grass; Preemergence, Rate 125 g/ha
  B. signalgrass plant response rating (0 to 10 scale, 0 is no effect, 10 is complete control): 0
Surinam grass; [11]
  B. signalgrass plant response rating: 2
Surinam grass; [12]
  B. signalgrass plant response rating: 4
Surinam grass; [13]
  B. signalgrass plant response rating: 0
Surinam grass; [14]
  Plant response rating, B. signalgrass: 0
Surinam grass; [10]
  Plant response rating, B. signalgrass: 4
soybean; [8]
  Plant response rating, Soybean: 1
soybean; [9]
  Plant response rating, Soybean: 0
soybean; Preemergence, Rate 125 g/ha
  Soybean plant response rating (0 to 10 scale): 0
soybean; Preemergence, Rate 250 g/ha
  Soybean plant response rating: 0
soybean; Preemergence, Rate 500 g/ha
  Soybean plant response rating: 2
soybean; Rate 62 g/ha, Postemergence
  Soybean plant response rating: 1
soybean; [10]
  Plant response rating, Soybean: 3
rice; [1]
  Plant response rating, Rice: 0
rice; [2]
  Rice plant response rating: 0
rice; [3]
  Plant response rating, Rice (0 to 10 scale, 0 is no effect, 10 is complete control): 0
rice; [4]
  Rice plant response rating: 0
rice; [5]
  Rice plant response rating: 0
rice; [6]
  Plant response rating, Rice: 0
rice; [7]
  Rice plant response rating: 0
pigweed; [8]
  Plant response rating, Redroot pigweed: 0
pigweed; [9]
  Plant response rating, Redroot pigweed: 4
pigweed; Preemergence, Rate 125 g/ha
  Redroot pigweed plant response rating (0 to 10 scale): 10
pigweed; Preemergence, Rate 250 g/ha
  Redroot pigweed plant response rating: 10
pigweed; Preemergence, Rate 500 g/ha
  Redroot pigweed plant response rating: 10
pigweed; Rate 62 g/ha, Postemergence
  Redroot pigweed plant response rating: 0
pigweed; [10]
  Plant response rating, Redroot pigweed: 3
wheat; [8]
  Plant response rating, Wheat: 0
wheat; [9]
  Plant response rating, Wheat: 0
wheat; Preemergence, Rate 125 g/ha
  Wheat plant response rating (0 to 10 scale): 0
wheat; Preemergence, Rate 250 g/ha
  Wheat plant response rating: 2
wheat; Preemergence, Rate 500 g/ha
  Wheat plant response rating: 3
wheat; Rate 62 g/ha, Postemergence
  Wheat plant response rating: 0
wheat; [10]
  Plant response rating, Wheat: 2
